Broadly, the IC50 is the point on the concentration scale where inhibition reaches its midpoint.

The text below walks through data of ChEMBL document CHEMBL5614405 (J Med Chem, 2024).

Series [1] addresses Rho-associated protein kinase 2 (Homo sapiens, UniProt O75116). As to the kind of experiment: Inhibition of ROCK2 (unknown origin) incubated for 60 mins in presence of ATP by mobility shift assay.
The target of series [2] is Rho-associated protein kinase 1 (Homo sapiens, UniProt Q13464). As to the kind of experiment: Inhibition of ROCK1 (unknown origin) incubated for 10 mins in presence of ATP by mobility shift assay.
Rho-associated protein kinase 1, sequence (Q13464 whole entry): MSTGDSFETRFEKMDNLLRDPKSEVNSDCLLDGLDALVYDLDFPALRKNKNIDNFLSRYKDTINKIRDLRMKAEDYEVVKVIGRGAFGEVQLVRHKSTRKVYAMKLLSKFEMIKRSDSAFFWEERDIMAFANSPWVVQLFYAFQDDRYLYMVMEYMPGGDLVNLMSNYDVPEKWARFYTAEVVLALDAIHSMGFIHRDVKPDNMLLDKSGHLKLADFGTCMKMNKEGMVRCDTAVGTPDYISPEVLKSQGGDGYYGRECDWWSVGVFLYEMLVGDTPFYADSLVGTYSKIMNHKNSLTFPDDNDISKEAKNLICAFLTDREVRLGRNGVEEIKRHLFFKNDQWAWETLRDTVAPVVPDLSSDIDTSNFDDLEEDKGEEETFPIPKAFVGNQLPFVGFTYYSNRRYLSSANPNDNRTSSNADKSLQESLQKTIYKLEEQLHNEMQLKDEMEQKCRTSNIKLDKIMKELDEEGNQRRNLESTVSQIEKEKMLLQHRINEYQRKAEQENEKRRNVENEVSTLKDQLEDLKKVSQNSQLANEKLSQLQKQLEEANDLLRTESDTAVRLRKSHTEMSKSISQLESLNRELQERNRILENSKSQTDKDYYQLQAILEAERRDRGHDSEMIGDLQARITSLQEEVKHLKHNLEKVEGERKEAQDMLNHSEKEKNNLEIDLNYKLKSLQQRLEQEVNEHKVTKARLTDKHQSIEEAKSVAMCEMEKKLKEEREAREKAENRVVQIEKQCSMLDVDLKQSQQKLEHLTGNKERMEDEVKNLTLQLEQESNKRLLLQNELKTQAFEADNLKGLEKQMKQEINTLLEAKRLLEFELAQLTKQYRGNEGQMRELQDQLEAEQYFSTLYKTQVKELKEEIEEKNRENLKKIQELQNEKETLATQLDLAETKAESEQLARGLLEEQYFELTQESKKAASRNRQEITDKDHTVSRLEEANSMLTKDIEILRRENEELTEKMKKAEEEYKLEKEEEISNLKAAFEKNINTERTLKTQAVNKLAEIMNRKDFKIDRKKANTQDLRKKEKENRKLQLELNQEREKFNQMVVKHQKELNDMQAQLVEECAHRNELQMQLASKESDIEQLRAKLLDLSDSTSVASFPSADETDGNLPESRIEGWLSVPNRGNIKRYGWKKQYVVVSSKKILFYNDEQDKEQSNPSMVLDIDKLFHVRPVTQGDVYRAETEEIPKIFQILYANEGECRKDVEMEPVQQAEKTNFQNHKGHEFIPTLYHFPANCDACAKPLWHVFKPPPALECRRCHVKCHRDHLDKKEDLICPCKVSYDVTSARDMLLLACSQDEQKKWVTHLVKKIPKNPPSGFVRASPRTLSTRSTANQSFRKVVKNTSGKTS
Series [3] relates to Oryctolagus cuniculus. As to the kind of experiment: Anti-glaucoma activity in methylcellulose-induced acute intraocular hypertensive New Zealand rabbit model assessed as reduction in intraocular pressure at 1.55 mM,TOP administration on conjunctival sac measured for 1 to 4 hrs. The format is functional, organism-based. To be noted: time 1-4 hrs.
The nature of series [4]: Toxicity in chicken embryo chorioallantoic membrane assessed as irritation score at 1.55 mM measured after 5 mins by microscopic analysis relative to Netarsudil. The format is tissue-based, Gallus gallus. To be noted: in vivo, 1550 µM.
The nature of series [5]: Toxicity in New Zealand rabbit assessed as appearance of conjunctival congestion by measuring incidence of ocular irritation at 0.028 % TOP administration on left eye measured for 5 days by draize eye irritation test. To be noted: in vivo, topical_or_ocular, 120 h, time 5 day. Format: tissue-based, Oryctolagus cuniculus.
Series [6] in a line: Toxicity in New Zealand rabbit assessed as appearance of conjunctival congestion by measuring ocular irritation score at 0.028 % TOP administration on left eye measured after 2 days by draize eye irritation test. To be noted: in vivo, topical_or_ocular, 48 h, time 2 day. The format is tissue-based, Oryctolagus cuniculus.
A short description of series [7]: Toxicity in New Zealand rabbit assessed as appearance of conjunctival congestion by measuring ocular irritation score at 0.028 % TOP administration on left eye measured after 7 days by draize eye irritation test. Format: tissue-based, Oryctolagus cuniculus. To be noted: in vivo, topical_or_ocular, 168 h, time 7 day.
A short description of series [8]: Toxicity in New Zealand rabbit assessed as appearance of conjunctival congestion by measuring ocular irritation score at 0.028 % TOP administration on left eye measured after 1 day by draize eye irritation test. The note with it: in vivo, topical_or_ocular, 24 h. Format: tissue-based, Oryctolagus cuniculus.
Series [9] concerns Mus musculus. As to the kind of experiment: Anti-glaucoma activity in magnetic microbead induced occlusion C57BL/6J mouse model assessed as increase in retinal ganglion cell population at 441.27 uM,TOP administrated on right eye thrice a day for 21 days by immunofluorescence based confocal microscopic analysis. To be noted: time 21.0 day. Format: functional, organism-based.
A short description of series [10]: Toxicity in chicken embryo chorioallantoic membrane assessed as irritation score at 1.55 mM measured after 5 mins in presence of methyl 3-(nitrooxy)benzoate by microscopic analysis. To be noted: in vivo, 1550 µM. Format: tissue-based, Gallus gallus.
The nature of series [11]: Toxicity in New Zealand rabbit assessed as appearance of conjunctival congestion by measuring ocular irritation score at 0.028 % TOP administration on left eye measured after 4 days by draize eye irritation test. Format: tissue-based, Oryctolagus cuniculus. To be noted: in vivo, topical_or_ocular, 96 h, time 4 day.
Series [12] can be described thus: Toxicity in New Zealand rabbit assessed as appearance of conjunctival congestion by measuring ocular irritation score at 0.028 % TOP administration on left eye measured after 3 days by draize eye irritation test. The format is tissue-based, Oryctolagus cuniculus. The note with it: in vivo, topical_or_ocular, 72 h, time 3 day.
The nature of series [13]: Toxicity in New Zealand rabbit assessed as appearance of conjunctival congestion by measuring ocular irritation score at 0.028 % TOP administration on left eye measured after 5 days by draize eye irritation test. To be noted: in vivo, topical_or_ocular, 120 h, time 5 day. The format is tissue-based, Oryctolagus cuniculus.
For series [14], the system named is Mus musculus. The series is described as follows: Anti-glaucoma activity in magnetic microbead induced occlusion C57BL/6J mouse model assessed as reduction in intraocular pressure at 441.27 uM,TOP administration on right eye measured after 1 hr by tonometric analysis. The format is functional, organism-based.
Series [15] is described as follows: Toxicity in New Zealand rabbit assessed as appearance of conjunctival congestion by measuring ocular irritation score at 0.028 % TOP administration on left eye measured after 6 days by draize eye irritation test. To be noted: in vivo, topical_or_ocular, 144 h, time 6 day. The format is tissue-based, Oryctolagus cuniculus.
A short description of series [16]: Toxicity in chicken embryo chorioallantoic membrane assessed as irritation score at 1.55 mM measured after 5 mins by microscopic analysis relative to Latanoprost. To be noted: in vivo, 1550 µM. Format: tissue-based, Gallus gallus.
For series [17], the system named is Oryctolagus cuniculus. As to the kind of experiment: Anti-glaucoma activity in methylcellulose-induced acute intraocular hypertensive New Zealand rabbit model assessed as reduction in intraocular pressure at 1.55 mM,TOP administration on conjunctival sac measured for 5 to 7 hrs. To be noted: time 5-7 hrs. The format is functional, organism-based.
Series [18] has as its system Oryctolagus cuniculus. As to the kind of experiment: Anti-glaucoma activity in methylcellulose-induced acute intraocular hypertensive New Zealand rabbit model assessed as reduction in intraocular pressure at 1.55 mM,TOP administration on conjunctival sac measured upto 24 hrs relative to Netarsudil. Format: functional, organism-based.

Calls of active or inactive are those of the source. No cut-off for these calls is given here.

Rho-associated protein kinase 2, sequence (O75116 whole entry): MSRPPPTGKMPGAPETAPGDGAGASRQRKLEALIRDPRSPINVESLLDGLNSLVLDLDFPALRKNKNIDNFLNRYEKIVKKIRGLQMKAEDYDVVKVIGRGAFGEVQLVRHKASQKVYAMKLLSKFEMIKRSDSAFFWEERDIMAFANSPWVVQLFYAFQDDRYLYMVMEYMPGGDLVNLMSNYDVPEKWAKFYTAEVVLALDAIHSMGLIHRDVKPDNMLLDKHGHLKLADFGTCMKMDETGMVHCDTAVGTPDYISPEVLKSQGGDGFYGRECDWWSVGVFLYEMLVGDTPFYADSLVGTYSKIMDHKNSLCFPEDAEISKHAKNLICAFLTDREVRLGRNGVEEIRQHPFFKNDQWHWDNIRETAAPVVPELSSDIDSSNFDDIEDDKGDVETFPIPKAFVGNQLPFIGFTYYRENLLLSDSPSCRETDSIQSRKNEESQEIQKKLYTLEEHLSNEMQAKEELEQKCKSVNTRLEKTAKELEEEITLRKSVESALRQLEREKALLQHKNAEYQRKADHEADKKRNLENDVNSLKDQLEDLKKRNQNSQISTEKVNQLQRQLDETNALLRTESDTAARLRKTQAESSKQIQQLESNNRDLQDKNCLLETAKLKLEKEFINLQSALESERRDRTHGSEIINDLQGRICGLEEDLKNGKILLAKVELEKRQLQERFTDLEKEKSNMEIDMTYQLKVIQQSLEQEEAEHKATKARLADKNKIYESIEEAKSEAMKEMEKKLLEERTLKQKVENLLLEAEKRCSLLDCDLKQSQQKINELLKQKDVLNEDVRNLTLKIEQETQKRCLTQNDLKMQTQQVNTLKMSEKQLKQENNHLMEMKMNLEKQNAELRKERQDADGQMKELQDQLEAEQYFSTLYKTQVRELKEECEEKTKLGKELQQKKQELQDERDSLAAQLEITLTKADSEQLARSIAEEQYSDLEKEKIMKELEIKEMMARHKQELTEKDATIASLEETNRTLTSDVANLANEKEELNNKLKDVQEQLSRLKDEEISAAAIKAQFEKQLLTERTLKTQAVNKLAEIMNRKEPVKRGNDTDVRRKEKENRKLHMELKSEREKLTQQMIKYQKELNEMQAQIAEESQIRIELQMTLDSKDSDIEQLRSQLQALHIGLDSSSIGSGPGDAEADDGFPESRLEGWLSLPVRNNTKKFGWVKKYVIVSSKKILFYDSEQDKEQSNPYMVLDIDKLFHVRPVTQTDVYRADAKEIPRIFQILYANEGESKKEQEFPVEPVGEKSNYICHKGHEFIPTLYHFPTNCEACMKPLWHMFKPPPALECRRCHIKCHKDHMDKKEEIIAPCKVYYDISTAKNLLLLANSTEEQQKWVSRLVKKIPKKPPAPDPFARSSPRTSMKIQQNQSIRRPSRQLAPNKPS

On to `C[C@H]1CNCCCN1S(=O)(=O)c1cccc2cncc(F)c12`, for which the IC50 in series [1] stood at 13.1 nM.

As for `NCC(C(=O)Nc1ccc2cnccc2c1)c1ccc(COC(=O)CCCCCO[N+](=O)[O-])cc1` (centres undefined), the IC50 in series [1] came to 5.27 nM; in series [2], 22.5 nM.

Regarding `NCC(C(=O)Nc1ccc2cnccc2c1)c1ccc(COC(=O)CCC(=O)O[C@@H]2CO[C@@H]3[C@H]2OC[C@@H]3O[N+](=O)[O-])cc1` (some centres undefined), the IC50 in [1] came to 8.56 nM; in series [2] it was 28.6 nM.

Turning to `CS(=O)(=O)O.CS(=O)(=O)O.NCC(C(=O)Nc1ccc2cnccc2c1)c1ccc(COC(=O)c2ccc(CO[N+](=O)[O-])cc2)cc1` (centres undefined), the IC50 in series [1] was found to be 0.83 nM; in series [2], 1.48 nM. Also, the result in series [3] was Active. Besides, the Activity result in series [4] is listed as “Toxic”.

In the case of `Cc1ccc(C(=O)OCc2ccc([C@@H](CN)C(=O)Nc3ccc4cnccc4c3)cc2)c(C)c1`, the Activity is 100% in series [5]; 3.67 in series [6]; 1 in [7]; 3.33 in [8]; “Non-Toxic” in [10]; 3.67 in series [11]. In addition, the results for the Activity in series [12], in series [13] and in series [15] were 3, 2.33 and 1.33, respectively. Further, the outcome in series [9] and in [14] was Active.

As for `NCC(C(=O)Nc1ccc2cnccc2c1)c1ccc(COC(=O)CCCCO[N+](=O)[O-])cc1` (centres undefined), the IC50 in series [1] came out at 5.15 nM; in series [2], 29 nM.

Consider `O=C(CCC/C=C\C[C@@H]1[C@@H](CC[C@@H](O)CCc2ccccc2)[C@H](O)C[C@@H]1O)OCCCCO[N+](=O)[O-]` [LATANOPROSTENE BUNOD], for which the Activity entry in series [16] is on record as “Toxic”.

As to `CS(=O)(=O)O.CS(=O)(=O)O.NCC(C(=O)Nc1ccc2cnccc2c1)c1ccc(COC(=O)c2cccc(CO[N+](=O)[O-])c2)cc1` (centres undefined), the IC50 came to 1.48 nM in series [1] and 2.54 nM in [2]. Besides, the result in series [17] and in series [3] was Active. In series [4], the Activity entry is given as “Toxic”.

On to `CS(=O)(=O)O.CS(=O)(=O)O.NCC(C(=O)Nc1ccc2cnccc2c1)c1ccc(COC(=O)CCCO[N+](=O)[O-])cc1` (centres undefined), for which the figures for the IC50 in [1] and in series [2] were 2.51 nM and 4.94 nM, respectively. Further, the outcome in [18] was Active. Further, the Activity result in series [4] was “Toxic”.

Consider `NC[C@H](C(=O)Nc1ccc2cnccc2c1)c1ccc(COC(=O)c2cccc(CO[N+](=O)[O-])c2)cc1`, for which the IC50 is 25.3 nM in series [1] and 35.4 nM in [2].
